This passage reports IC50 results from patent US12384808B2, “Modulators of TNF-α activity” (Forward Therapeutics, Inc., priority 2022, dated 2025).

The IC50 is the concentration needed to halve the response being measured.

The target of the first assay is TNFα (Homo sapiens, UniProt P01375). Nature of the assay: TNFα Induced HEK Blue Cellular Assay.
TNFα, sequence (P01375 77-233 limits assumed): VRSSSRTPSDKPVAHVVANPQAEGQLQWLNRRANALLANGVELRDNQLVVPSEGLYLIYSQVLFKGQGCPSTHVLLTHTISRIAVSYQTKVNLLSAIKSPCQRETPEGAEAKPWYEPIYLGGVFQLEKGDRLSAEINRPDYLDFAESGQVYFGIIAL
Conditions: not given
Type of assay: cell-based. The procedure, abridged:
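IC50 fitted with a 4-parameter logistic model from % inhibition, normalised to DMSO controls with and without stimulation. Readout: QUANTI-Blue SEAP at 620 nm after 24 h, 37 °C exposure to TNFα (100 pg/ml final) and test compound at […]–0.5 nM final.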
`[2H]C([2H])([2H])N1C(=O)c2cccc(OC(F)F)c2[C@H]2C[C@@H]1c1nc3ccc(-c4ccc(CP(=O)(OC)OC)c(F)c4)cc3n12` [Example 136, dimethyl (4-((7R,14R)-1-(difluoromethoxy)-6-(methyl-d3)-5-oxo-5,6,7,14-tetrahydro-7,14-methanobenzo[f]benzo[4,5]imidazo[1,2-a][1,4]diazocin-11-yl)-2-fluorobenzyl)phosphonate]: the IC50 was under 100 nM.

The same assay, now with this note: HEK Blue TNFα reporter cells, TNFα 100 pg/ml, 24 hrs at 37° C., secreted alkaline phosphatase (QUANTI-Blue) read at 620 nm; read-out: IC50 value.
Take `[2H]C([2H])([2H])N1C(=O)c2cccc(OC(F)F)c2[C@H]2C[C@@H]1c1nc3c(F)cc(-c4ccc(P(C)(C)=O)c(F)c4)cc3n12` [Example 135, (7R,14R)-1-(difluoromethoxy)-11-(4-(dimethylphosphoryl)-3-fluorophenyl)-9-fluoro-6-(methyl-d3)-6,7-dihydro-7,14-methanobenzo[f]benzo[4,5]imidazo[1,2-a][1,4]diazocin-5(14H)-one]: the IC50 was under 100 nM. The same measure, in the same setting: next, `CCP(=O)(CC)c1ccc(-c2ccc3nc4n(c3c2)[C@@H]2C[C@H]4NC(=O)c3cccc(OC(F)F)c32)cn1` [Example 137, (7R,14R)-11-(6-(diethylphosphoryl)pyridin-3-yl)-1-(difluoromethoxy)-6,7-dihydro-7,14-methanobenzo[f]benzo[4,5]imidazo[1,2-a][1,4]diazocin-5(14H)-one]: under 100 nM; `CCP(=O)(CC)c1ccc(-c2ccc3nc4n(c3c2)[C@@H]2C[C@H]4NC(=O)c3cccc(OC(F)F)c32)c(F)c1` [Example 138, (7R,14R)-11-(4-(diethylphosphoryl)-2-fluorophenyl)-1-(difluoromethoxy)-6,7-dihydro-7,14-methanobenzo[f]benzo[4,5]imidazo[1,2-a][1,4]diazocin-5(14H)-one]: under 100 nM; `[2H]C([2H])([2H])N1C(=O)c2cccc(OC(F)F)c2[C@H]2C[C@@H]1c1nc3ccc(-c4ccc(P(C)(C)=O)c(F)c4)c(F)c3n12` [Example 139, (7R,14R)-1-(difluoromethoxy)-11-(4-(dimethylphosphoryl)-3-fluorophenyl)-12-fluoro-6-(methyl-d3)-6,7-dihydro-7,14-methanobenzo[f]benzo[4,5]imidazo[1,2-a][1,4]diazocin-5(14H)-one]: under 100 nM. Still for that read-out and setting: the figure for `CP(C)(=O)c1ccc(-c2ccc3nc4n(c3c2F)[C@@H]2C[C@H]4NC(=O)c3cccc(OC(F)F)c32)cc1F` [Example 140, (7R,14R)-1-(difluoromethoxy)-11-(4-(dimethylphosphoryl)-3-fluorophenyl)-12-fluoro-6,7-dihydro-7,14-methanobenzo[f]benzo[4,5]imidazo[1,2-a][1,4]diazocin-5(14H)-one] is under 100 nM.

Take `[2H]C([2H])([2H])N1C(=O)c2cccc(OC(F)F)c2[C@H]2C[C@@H]1c1nc3ccc(-c4ccc(P(C)(C)=O)c(F)c4)nc3n12` [Example 141, (7R,14R)-1-(difluoromethoxy)-11-(4-(dimethylphosphoryl)-3-fluorophenyl)-6-(methyl-d3)-6,7-dihydro-7,14-methanobenzo[f]pyrido[3′,2′:4,5]imidazo[1,2-a][1,4]diazocin-5(14H)-one]: the IC50 is under 100 nM. `[2H]C([2H])([2H])N1C(=O)c2cccc(OC(F)F)c2[C@H]2C[C@@H]1c1nc3ccc(-c4cc(F)c(P(C)(C)=O)cc4F)nc3n12` [Example 142, (7R,14R)-1-(difluoromethoxy)-11-(4-(dimethylphosphoryl)-2,5-difluorophenyl)-6-(methyl-d3)-6,7-dihydro-7,14-methanobenzo[f]pyrido[3′,2′:4,5]imidazo[1,2-a][1,4]diazocin-5(14H)-one]: the IC50 was under 100 nM.
